Results reported in patent publication US10208044B2, “ACC inhibitors and uses thereof” (Gilead Apollo, LLC, priority 2013, dated 2019).

Assays:
[1] = tested on: ACC1; details: ACC1 isolated from rat, mouse, monkey and human; cited from earlier work
[2] = tested on: ACC2; details: ACC2 isolated from rat, mouse, monkey and human; cited from earlier work
[3] = target: ACC2 (Homo sapiens (Human), UniProt O00763); assay: in vitro ACC2 inhibition assay (ADP-Glo); type: biochemical; details: 5 nM ACC2, 20 μM ATP, 20 μM acetyl-CoA
Experimental: An exemplary procedure for the in vitro ACC inhibition assay, which can be used to determine the inhibitory action of compounds of the invention toward either ACC1 or ACC2, follows. The ADP-Glo™ Kinase Assay kit from Promega is used. The ADP-Glo™ Kinase Assay is a luminescent ADP detection assay to measure enzymatic activity by quantifying the amount of ADP produced during an enzyme reaction. The assay is performed in two steps; first, after the enzyme reaction, an equal volume of ADP-Glo™ Reagent is added to terminate the reaction and deplete the remaining ATP. Second, the Kinase Detection Reagent is added to simultaneously convert ADP to ATP and allow the newly synthesized ATP to be measured using a luciferase/luciferin reaction. Luminescence can be correlated to ADP concentrations by using an […]. The detailed procedure is as follows. 50 μL of the compound being tested (600 uM in DMSO) is added to a 384-well dilution plate. The compound is diluted 1:3 in succession in DMSO for each row for 11 wells. 0.5 μL ACC2 working solution is added to 384-well white Optiplate assay plate. 0.5 μL diluted compound solution in each column from step 2 is added to the assay plate, each row containing 2 replicates. For the last 2 rows, add 0.5 μL negative control (DMSO) in one row and 0.5 μL positive control (compound I-97) in the other. The plates are incubated at room temperature for 15 minutes. […] Plates are incubated at room temperature for 40 minutes, then read on a Perkin Elmer EnVision 2104 plate reader for luminescence as Relative Light Units (RLU).
Data for each concentration, as well as the positive and negative controls are averaged, and the standard deviation calculated. Percent inhibition is calculated by the formula: 100× (average negative control−compound)/(average negative control−average positive control). The IC50 for each compound is calculated by fitting the data with a non-linear regression equation: Y=Bottom+(Top-Bottom)/(1+10^((Log IC50-X)*HillSlope)), where X is the log of compound concentration and Y is percent inhibition. […]

Chain of ACC2 (Homo sapiens (Human), UniProt O00763) (O00763 whole entry, species assumed): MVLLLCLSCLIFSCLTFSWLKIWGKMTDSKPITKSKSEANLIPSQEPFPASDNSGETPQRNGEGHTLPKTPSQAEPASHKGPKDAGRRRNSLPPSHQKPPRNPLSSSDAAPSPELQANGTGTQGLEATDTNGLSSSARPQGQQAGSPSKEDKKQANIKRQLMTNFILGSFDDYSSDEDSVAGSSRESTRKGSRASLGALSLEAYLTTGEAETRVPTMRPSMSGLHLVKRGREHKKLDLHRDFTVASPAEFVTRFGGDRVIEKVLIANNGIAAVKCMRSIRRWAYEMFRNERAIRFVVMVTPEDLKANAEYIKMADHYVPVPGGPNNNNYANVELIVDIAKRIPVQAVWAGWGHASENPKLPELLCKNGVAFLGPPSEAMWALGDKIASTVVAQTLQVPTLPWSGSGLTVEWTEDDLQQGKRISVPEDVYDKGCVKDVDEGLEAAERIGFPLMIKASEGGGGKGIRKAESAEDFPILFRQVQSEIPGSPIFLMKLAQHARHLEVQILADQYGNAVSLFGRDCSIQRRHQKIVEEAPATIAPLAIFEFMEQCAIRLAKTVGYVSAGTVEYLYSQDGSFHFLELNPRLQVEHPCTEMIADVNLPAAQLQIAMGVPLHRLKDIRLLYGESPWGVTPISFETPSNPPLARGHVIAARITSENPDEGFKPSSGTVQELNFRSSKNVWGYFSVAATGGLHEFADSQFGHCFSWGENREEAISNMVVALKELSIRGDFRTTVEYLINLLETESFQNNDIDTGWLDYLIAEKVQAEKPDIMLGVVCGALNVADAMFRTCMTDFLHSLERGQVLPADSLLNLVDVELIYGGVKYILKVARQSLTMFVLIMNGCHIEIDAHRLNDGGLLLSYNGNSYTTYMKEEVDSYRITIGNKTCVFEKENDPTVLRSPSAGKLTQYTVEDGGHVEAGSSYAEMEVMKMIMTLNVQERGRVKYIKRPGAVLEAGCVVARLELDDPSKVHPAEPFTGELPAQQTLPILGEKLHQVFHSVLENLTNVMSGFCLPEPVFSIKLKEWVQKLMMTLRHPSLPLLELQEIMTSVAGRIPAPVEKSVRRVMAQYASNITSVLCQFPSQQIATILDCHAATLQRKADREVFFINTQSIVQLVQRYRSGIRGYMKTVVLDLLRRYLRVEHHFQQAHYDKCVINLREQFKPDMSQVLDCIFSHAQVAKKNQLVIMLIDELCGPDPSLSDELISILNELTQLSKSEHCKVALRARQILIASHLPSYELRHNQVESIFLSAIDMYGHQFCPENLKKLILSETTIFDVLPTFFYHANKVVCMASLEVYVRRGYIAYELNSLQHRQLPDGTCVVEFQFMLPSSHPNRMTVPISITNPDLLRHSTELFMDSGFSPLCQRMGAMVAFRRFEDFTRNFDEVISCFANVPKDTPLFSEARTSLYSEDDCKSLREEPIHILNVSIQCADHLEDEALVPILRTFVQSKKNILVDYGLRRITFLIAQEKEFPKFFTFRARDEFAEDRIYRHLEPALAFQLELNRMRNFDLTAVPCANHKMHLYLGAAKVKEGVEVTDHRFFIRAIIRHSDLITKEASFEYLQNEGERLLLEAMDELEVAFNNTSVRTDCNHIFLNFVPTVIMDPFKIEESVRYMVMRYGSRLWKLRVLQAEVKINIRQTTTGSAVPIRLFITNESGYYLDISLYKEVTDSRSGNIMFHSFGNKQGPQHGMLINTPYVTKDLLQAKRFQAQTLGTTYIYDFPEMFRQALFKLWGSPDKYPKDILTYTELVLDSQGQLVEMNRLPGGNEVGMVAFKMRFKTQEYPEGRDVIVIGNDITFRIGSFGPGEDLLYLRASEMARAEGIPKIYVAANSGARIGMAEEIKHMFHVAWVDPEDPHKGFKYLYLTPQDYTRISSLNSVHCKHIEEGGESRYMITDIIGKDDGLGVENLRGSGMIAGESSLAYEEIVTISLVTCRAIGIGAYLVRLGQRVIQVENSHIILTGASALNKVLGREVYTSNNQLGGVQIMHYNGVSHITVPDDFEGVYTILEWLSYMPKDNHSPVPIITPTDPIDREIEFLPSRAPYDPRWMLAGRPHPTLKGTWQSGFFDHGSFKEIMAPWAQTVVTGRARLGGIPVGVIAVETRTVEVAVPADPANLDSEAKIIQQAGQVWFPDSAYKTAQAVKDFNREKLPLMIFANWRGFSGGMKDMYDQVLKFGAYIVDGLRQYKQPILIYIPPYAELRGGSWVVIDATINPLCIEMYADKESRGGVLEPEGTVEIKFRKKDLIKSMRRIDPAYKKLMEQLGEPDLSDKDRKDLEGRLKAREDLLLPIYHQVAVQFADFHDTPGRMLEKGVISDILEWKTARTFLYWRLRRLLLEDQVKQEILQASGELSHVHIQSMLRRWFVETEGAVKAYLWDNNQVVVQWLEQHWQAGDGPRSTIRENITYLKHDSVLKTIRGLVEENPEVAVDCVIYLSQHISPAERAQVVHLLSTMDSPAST

| IC50 [3] [µM] | SMILES | IC50 [1] [µM] | IC50 [2] [µM] |
| --- | --- | --- | --- |
|  | O=C(c1c2ccccc2cc2ccccc12)N1CCC(N2CCC[C@@H](C(=O)N3CCOCC3)C2)CC1 [CP-640186] | ~0.06 | ~0.06 |
| 20 to 50 | COc1ccc(F)cc1[C@H](Cn1c(=O)n(C(C)(C)C(=O)O)c(=O)c2cc(-c3ncco3)ccc21)OC1CCOCC1 [Compound I-28, (R)-2-(1-(2-(5-fluoro-2-methoxyphenyl)-2-((tetrahydro-2H-pyran-4-yl)oxy)ethyl)-6-(oxazol-2-yl)-2,4-dioxo-1,2-dihydroquinazolin-3(4H)-yl)-2-methylpropanoic acid] |  |  |
| 20 to 50 | COc1ccc(F)cc1[C@H](Cn1c(=O)n(C(C)(C)C(N)=O)c(=O)c2cc(-c3ncco3)ccc21)OC1CCOCC1 [Compound I-29, (R)-2-(1-(2-(5-fluoro-2-methoxyphenyl)-2-((tetrahydro-2H-pyran-4-yl)oxy)ethyl)-6-(oxazol-2-yl)-2,4-dioxo-1,2-dihydroquinazolin-3(4H)-yl)-2-methylpropanamide] |  |  |
| 20 to 50 | COc1ccc(F)cc1[C@H](Cn1c(=O)n(C(C)(C)C(=O)O)c(=O)c2cc(Br)ccc21)OC1CCOCC1 [Compound I-30, (R)-2-(6-bromo-1-(2-(5-fluoro-2-methoxyphenyl)-2-((tetrahydro-2H-pyran-4-yl)oxy)ethyl)-2,4-dioxo-1,2-dihydroquinazolin-3(4H)-yl)-2-methylpropanoic acid] |  |  |
